Assay results as given in ChEMBL document CHEMBL5331057, “A decade of approved first-in-class small molecule orphan drugs: Achievements, challenges and perspectives” (Eur J Med Chem, 2022).
In brackets after ≈: the same amount, converted by molar mass.

Legend:
Format in all cases: functional
[1] = test system: Mycobacterium tuberculosis
[2] = test system: Mycobacterium tuberculosis; remark: listed apart in the source
[3] = test system: Mycobacterium tuberculosis; remark: listed apart in the source

Row | Structure (SMILES) | MIC [1] | MIC [2] | MIC50 [3] | MIC90 [3]
1 | COc1nc2ccc(Br)cc2cc1[C@@H](c1ccccc1)[C@@](O)(CCN(C)C)c1cccc2ccccc12 [BEDAQUILINE] | 0.01 mg/L (≈ 0.018 µM) | 0.03 mg/L (≈ 0.054 µM) |  | 
2 | O=[N+]([O-])c1cn2c(n1)OC[C@@H](OCc1ccc(OC(F)(F)F)cc1)C2 [PRETOMANID] |  |  | 0.015 mg/L (≈ 0.0418 µM) | 0.063 mg/L (≈ 0.175 µM)
